ChEMBL document CHEMBL1133042, “Convergent synthesis of ribonuclease L-active 2',5'-oligoadenylate-peptide nucleic acids” (Bioorg Med Chem Lett, 2000)

Tests used:
[1] = molecular target: T1, 2-5A-dependent ribonuclease (Homo sapiens) (UniProt Q05823); assay: Relative binding affinity of compound to human recombinant Ribonuclease L, compared to that of 2-5A standard (Crel=1); No binding detected
T1 sequence (whole entry): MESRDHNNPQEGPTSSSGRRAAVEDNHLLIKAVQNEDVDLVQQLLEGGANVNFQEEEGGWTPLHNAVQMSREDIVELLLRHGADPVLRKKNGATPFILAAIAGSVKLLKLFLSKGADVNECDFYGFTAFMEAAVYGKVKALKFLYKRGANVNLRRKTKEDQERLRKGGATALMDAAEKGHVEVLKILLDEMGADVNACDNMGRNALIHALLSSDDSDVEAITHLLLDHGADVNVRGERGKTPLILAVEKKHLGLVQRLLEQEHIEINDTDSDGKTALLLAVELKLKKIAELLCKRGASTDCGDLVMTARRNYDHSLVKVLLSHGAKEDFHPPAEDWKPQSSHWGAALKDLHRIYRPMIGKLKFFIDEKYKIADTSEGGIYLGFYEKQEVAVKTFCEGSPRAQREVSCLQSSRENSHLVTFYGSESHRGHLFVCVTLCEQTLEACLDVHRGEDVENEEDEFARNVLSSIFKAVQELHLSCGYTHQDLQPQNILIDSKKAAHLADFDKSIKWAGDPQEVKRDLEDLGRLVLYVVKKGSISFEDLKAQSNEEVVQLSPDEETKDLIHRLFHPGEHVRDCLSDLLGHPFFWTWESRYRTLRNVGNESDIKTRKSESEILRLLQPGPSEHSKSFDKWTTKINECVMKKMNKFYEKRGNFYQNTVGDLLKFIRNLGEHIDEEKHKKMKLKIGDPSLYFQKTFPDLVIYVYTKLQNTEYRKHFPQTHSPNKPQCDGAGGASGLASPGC

[2] = molecular target: T1, 2-5A-dependent ribonuclease (Homo sapiens); assay: Relative ability of compound to activate Ribonuclease L to cleave poly(U)p[32P]Cp, compared to that of 2-5A standard (Crel=1); No cleavage detected
[3] = molecular target: T1, 2-5A-dependent ribonuclease (Homo sapiens); assay: Relative binding affinity of compound to human recombinant Ribonuclease L, compared to that of 2-5A standard (Crel=1)
[4] = molecular target: T1, 2-5A-dependent ribonuclease (Homo sapiens); assay: Relative ability of compound to activate Ribonuclease L to cleave poly(U)p[32P]Cp, compared to that of 2-5A standard (Crel=1)

Row | Compound | Crel [1] | Crel [2] | Crel [3] | Crel [4]
1 | CO[C@H]1[C@@H](OP(=O)(O)OC[C@H]2O[C@@H](n3cnc4c(N)ncnc43)[C@H](OP(=O)(O)OC[C@H]3O[C@@H](n4cnc5c(N)ncnc54)[C@H](OP(=O)(O)OC[C@H]4O[C@@H](n5cnc6c(N)ncnc65)[C@H](OP(=O)(O)O[C@@H]5CN(CCOCCOCC(=O)NCCOCCOCC(=O)NCCN(CC(=O)NCCN(CC(=O)NCCN(CC(=O)NCCN(CC(N)=O)C(=O)Cn6cc(C)c(=O)[nH]c6=O)C(=O)Cn6cc(C)c(=O)[nH]c6=O)C(=O)Cn6cc(C)c(=O)[nH]c6=O)C(=O)Cn6cc(C)c(=O)[nH]c6=O)C[C@H](n6cnc7c(N)ncnc76)O5)[C@@H]4O)[C@@H]3OC)[C@@H]2O)[C@H](n2cnc3c(N)ncnc32)O[C@@H]1COP(=O)(O)O | – | – | 1 | 14
2 | Nc1ncnc2c1ncn2[C@@H]1O[C@H](COP(=O)(O)O[C@@H]2[C@H](O)[C@@H](COP(=O)(O)O[C@@H]3[C@H](O)[C@@H](COP(=O)(O)O)O[C@H]3n3cnc4c(N)ncnc43)O[C@H]2n2cnc3c(N)ncnc32)[C@@H](O)[C@H]1O | – | – | 1 | 1

Now from value to molecule:

Row | Crel [1] | Crel [2] | Crel [3] | Crel [4] | Compound
3 | No binding | No cleavage | – | – | Cc1cn(CC(=O)N(CCNC(=O)CN(CCNC(=O)CN(CCNC(=O)CN(CCNC(=O)COCCOCCNC(=O)COCCOCCN2C[C@@H](COP(=O)(O)O[C@@H]3[C@H](O)[C@@H](COP(=O)(O)O)O[C@H]3n3cnc4c(N)ncnc43)O[C@@H](n3cnc4c(N)ncnc43)C2)C(=O)Cn2cc(C)c(=O)[nH]c2=O)C(=O)Cn2cc(C)c(=O)[nH]c2=O)C(=O)Cn2cc(C)c(=O)[nH]c2=O)CC(N)=O)c(=O)[nH]c1=O
4 | No binding | No cleavage | – | – | Cc1cn(CC(=O)N(CCNC(=O)CN(CCNC(=O)CN(CCNC(=O)CN(CCNC(=O)COCCOCCNC(=O)COCCOCCN2CC(COP(=O)(O)O)OC(n3cnc4c(N)ncnc43)C2)C(=O)Cn2cc(C)c(=O)[nH]c2=O)C(=O)Cn2cc(C)c(=O)[nH]c2=O)C(=O)Cn2cc(C)c(=O)[nH]c2=O)CC(N)=O)c(=O)[nH]c1=O (stereo not given)
5 | – | – | 0.7 | 47.6 | CO[C@H]1[C@@H](OP(=O)(O)OC[C@H]2O[C@@H](n3cnc4c(N)ncnc43)[C@H](OP(=O)(O)OC[C@@H]3CN(CCOCCOCC(=O)NCCOCCOCC(=O)NCCN(CC(=O)NCCN(CC(=O)NCCN(CC(=O)NCCN(CC(N)=O)C(=O)Cn4cc(C)c(=O)[nH]c4=O)C(=O)Cn4cc(C)c(=O)[nH]c4=O)C(=O)Cn4cc(C)c(=O)[nH]c4=O)C(=O)Cn4cc(C)c(=O)[nH]c4=O)C[C@H](n4cnc5c(N)ncnc54)O3)[C@@H]2O)[C@H](n2cnc3c(N)ncnc32)O[C@@H]1COP(=O)(O)O
